The record followed here is US9415047B2, “Use of benzo five-membered nitrogen heterocyclic piperazine or piperidine derivatives” (Liaoning Emmy Biological Pharmaceutical Co., Ltd., priority 2012, dated 2016).

Series [1] has as its system AD constricted rabbit aorta. As to the kind of experiment: Relaxing effects on vascular smooth muscle constricted by adrenaline hydrochloride (AD) in vitro. As to conditions: relaxation of rabbit aorta constricted by adrenaline (10^−5 mol/L), mean±SEM, n=5; for EC50: Oryctolagus cuniculus. The procedure, abridged: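 Rabbit aortic strips in K-H solution precontracted with adrenaline hydrochloride (10^−5 mol/L) after a reproducible second contraction; compounds added cumulatively over ranges from 1×10^−10 up to 1×10^−2 mol/L depending on the compound series. Relaxation expressed as % of maximal relaxation versus −log concentration, mean±SEM, n=5.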

The subject of series [2] is Calcium Channel (Ca^2+). The series is described as follows: Antagonism of accumulative constriction of rabbit aorta by CaCl2. Particulars: calcium free high kalium depolarization.
Procedure: (§1) Rabbits were hit to be dizzy, with thoracic cavity quickly cut open, descending aorta exposed, connective tissues and surrounding fatty tissues (for hydroxytryptamine receptor antagonism test, endothelia should be removed with smooth stainless steel rod) removed, the aorta was cut into 3-5 mm vascular rings which were penetrated together with a steel wire with one end fixed on ventilation hook, another end on pressure tonotransducer. The aorta rings were put into a bath tube with 20 ml of nutritional solution, and the tension changes were recorded by using the recorder. The temperature of bath tube was maintained at 37±0.5° C., and mixed gas (95% O2+5% CO2) was ventilated at a rate of I-2 bubbles/second. The initial load of the sample was 1.5 g, nutritional solution was changed for every 20 min. The sample was balanced for 2 hours, and the experiment would be started when baseline became stable.
After sample tension became stable, calcium K-H solution was used to flush the sample for 3 times, and incubated with calcium free K-H solution for 40 min. Calcium free high kalium solution was added into the sample for depolarization for 20 min, then CaCl2 (10^−6-10^−2 mol/L) was added into bath tube till maximal response was achieved, and then waveform was recorded. Then K-H solution was used to flush the sample repeatedly, the K-H solution was changed for every 20 min, and the sample was balanced for 60 min. […]
After sample tension became stable, calcium K-H solution was used to flush the sample for 3 times, and incubated with calcium free K-H solution for 40 min. Calcium free high kalium solution was added into the sample for depolarization for 20 min, then CaCl2 (10^−6-10^−2 mol/L) was added into bath tube till maximal response was achieved, and then waveform was recorded. […] Calcium free high kalium solution was added into the sample for depolarization for 20 min, then amlodipine (10^−7 mol/L) was added into bath tube, which was incubated for 15 min, then CaCl2 (10^−6-10^−2 mol/L) was added by using the same method till maximal response was achieved, and then waveform was recorded. […]
For series [3], the system named is α1 receptor. The series is described as follows: Antagonism of accumulative constriction of rabbit aorta by noradrenaline (α-receptor agonist). The method, then:
Then samples were flushed with K-H solution repeatedly, K-H solution was changed for every 20 min, and the samples were balanced for 60 min. After baseline recovered to be stable, doxazosin (10^−7 mol/L) was added, and noradrenaline (NA) (10^−8-6×10^−5 mol/L) was added by using the same method 15 min later.
NA was also added by using the same method 15 min later.

Series [4] has as its target 5-HT2A receptor (Oryctolagus cuniculus, UniProt G1SYA7). As to the kind of experiment: Antagonism of accumulative constriction of rabbit aorta by 5-HT.
Procedure: as §1
After sample tension became stable, a piece of waveform was recorded, 5-HT (10^−7-3×10^−4 mol/L) was added into the bath tube until maximal response, then waveform was recorded. […] 5-HT was also added by using the same method 20 min later. The maximal response was considered 100%, 5-HT constriction percentage was used as Y axis, negative logarithms of different concentrations of 5-HT were used as X axis to draw dose effective curve.
After sample tension became stable, a piece of waveform was recorded, 5-HT (10^−8-10^−3 mol/L) was added into the bath tube until maximal response, then waveform was recorded. […] 5-HT was also added by using the same method 20 min later. The maximal response was considered 100%, 5-HT constriction percentage was used as Y axis, negative logarithms of different concentrations of 5-HT were used as X axis to draw dose effective curve (data were expressed in mean±SEM ( ? ), *P<0.05, **P<0.01, n=7).
After sample tension became stable, a piece of waveform was recorded, 5-HT (10^−8-3×10^−4 mol/L) was added into the bath tube until maximal response, then waveform was recorded. […] 5-HT was also added by using the same method 20 min later. […]
Series [5] deals with high kalium concentration constricted rabbit aorta. The series is described as follows: Relaxing effects on vascular smooth muscle constricted by high kalium concentration in vitro. Particulars: relaxation of rabbit aorta constricted by high kalium solution (K+ 60 mmol/L), mean±SEM, n=5; for EC50: Oryctolagus cuniculus. The essentials:
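Rabbit aortic rings pre-challenged with adrenaline (10^−5 mol/L), washed and re-equilibrated 60 min in K-H solution, then constricted with high-K+ solution; compounds added cumulatively over 1×10^−10–1×10^−2 mol/L depending on series. Relaxation expressed as % of maximal relaxation vs −log concentration; mean±SEM, n=5.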

Series [6] relates to NA constricted rabbit aorta. As to the kind of experiment: Relaxing effects on vascular smooth muscle constricted by noradrenaline (NA) in vitro. As to conditions: relaxation of rabbit aorta constricted by noradrenaline (10^−5 mol/L), mean±SEM, n=5; for EC50: Oryctolagus cuniculus. The essentials: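 Rabbit aortic rings in K-H solution, pre-tested with adrenaline (10^−5 mol/L), washed and re-equilibrated 60 min, then constricted with noradrenaline (10^−5 mol/L). Compounds added cumulatively from 1×10^−10 up to 1×10^−2 or 1×10^−3 mol/L; relaxation expressed as % of maximal relaxation versus −log concentration (mean±SEM, n=5).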

The subject of series [7] is Kunming mice. As to the kind of experiment: Marrow micronucleus test on mice. The series is classed as in vivo. Particulars: dosed 4 days, test on day 5, II-2 120, II-85 74, cyclophosphane 60 mg/kg/day. The method, then:
Ten Kunming mice (Experimental Animal Center, China Medical University), half male and half female, were used. Compound II-2 was administered via gastric gavage at 120 mg/kg/day, and II-85 was administered to 74 mg/kg/day. The drug was administered for 4 days continuously. Marrow micronucleus test was performed on day 5.
Mice in positive control group were administered cyclophosphane at 60 mg/kg/day. Mice in negative control group were administered normal saline at 0.1 ml/10 g/day. The drug was administered for 4 days continuously. Marrow micronucleus test was performed on day 5.
The mice were killed by snapping neck, and then femur and sternum were excised, with blood and muscles removed, epiphysis cut off. Then marrow from sternum was squeezed to clean glassslide with bovine serum by using a pair of hemostatic forceps, or marrow on femur was flushed directly with bovine serum onto clean glassslide. Then the substance on glassslide were mixed well and smeared. Then the prepared and dried marrow smears were put into staining tank with methanol, fixed for 15 min, picked out to dry in the open air. After marrow smears were dried, it would be stained in freshly prepared Giemsa solution (1 volume of Giemsa stock solution and 9 volumes of pH 6.8 phosphate buffer) for 10 min, staining solution was flushed away with little stream. Then the smear was dried in the open air and observed under a microscope.

As usually defined, the EC50 is the concentration needed to bring the measured effect to its halfway point. A low value points to higher potency in that assay. A word on the Kb: it is the affinity of an antagonist, worked out from how it opposes an agonist. Read a low Kb as a more potent antagonist.

The structures appear in SMILES notation.

Sequence of 5-HT2A receptor (G1SYA7 1-469): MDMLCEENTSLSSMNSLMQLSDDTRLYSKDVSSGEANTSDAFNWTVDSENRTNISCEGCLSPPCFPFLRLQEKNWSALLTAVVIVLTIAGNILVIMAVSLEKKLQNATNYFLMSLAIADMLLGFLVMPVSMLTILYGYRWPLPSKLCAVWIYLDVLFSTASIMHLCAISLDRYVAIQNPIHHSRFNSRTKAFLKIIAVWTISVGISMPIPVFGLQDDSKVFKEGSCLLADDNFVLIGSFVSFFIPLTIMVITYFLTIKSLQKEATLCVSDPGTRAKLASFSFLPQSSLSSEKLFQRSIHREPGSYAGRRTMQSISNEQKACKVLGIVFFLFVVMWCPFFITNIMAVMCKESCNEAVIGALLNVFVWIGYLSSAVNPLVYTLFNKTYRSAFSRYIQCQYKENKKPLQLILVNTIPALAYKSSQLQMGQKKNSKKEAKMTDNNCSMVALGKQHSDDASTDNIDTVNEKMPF

With `FC(F)(F)c1cccc(N2CCN(CCCCn3nnc4ccccc43)CC2)c1` [II-31, 1-(4-(4-(3-trifluoromethylphenyl)piperazine-1-yl)butyl)-1H-benzotriazole], the EC50 is 0.646 µM in series [1] and 2.82 µM in series [5]. Further, in series [2], the “PA2 value to resist constriction of rabbit aorta by CaCl2” value is given as 6.56±0.032. For the same molecule, in series [3], the “PA2 value to resist constriction of rabbit aorta by NA” value is given as 6.02±0.13. In series [4], this molecule gave a Kb of 0.188 µM.

As for `Fc1ccc2c(C3CCN(CCCn4ncc5ccccc54)CC3)noc2c1` [II-103, N-(3-(1-benzopyrazol)propyl)-4-(3-(6-fluorobenzisoxazolyl))piperidine], the EC50 in series [1] is 6.17 µM; in series [6], 7.76 µM; in series [5] it was 617 µM.

On to `N#Cc1ccc2cnn(CCCCN3CCC(c4noc5cc(F)ccc45)CC3)c2c1` [II-104, N-(4-(6-cyanobenzopyrazol)butyl)-4-(3-(6-fluorobenzisoxazolyl))piperidine], for which the EC50 in series [1] is 9.55 µM; in series [6], 9.55 µM; in series [5], 380 µM.

Regarding `Clc1cccc(C2CCN(CCCCn3cnc4ccccc43)CC2)c1` [II-107, N-(4-(1H-benzimidazoyl-1-yl)butyl)-4-(3-chlorophenyl)piperidine], the “−logEC50” value in series [1] is given as 5.03 ± 0.02; in series [5], 3.69 ± 0.02. The molecule further had an EC50 in series [6] of 7.76 µM.

For the molecule `Clc1cccc(C2CCN(CCCCn3nnc4ccccc43)CC2)c1` [II-108, N-(4-(1H-benzotriazole-1-yl)butyl)-4-(3-chlorophenyl)piperidine], the results for the “−logEC50” value in series [1] and in series [5] were 5.16 ± 0.03 and 3.82 ± 0.03, respectively. This molecule also had an EC50 in series [6] of 5.37 µM.

`FC(F)(F)c1cccc(C2CCN(CCCCn3cnc4ccccc43)CC2)c1` [II-109, N-(4-(1H-benzimidazoyl-1-yl)butyl)-4-(3-trifluoromethylphenyl)piperidine]: the “−logEC50” value in series [1] amounted to 6.21 ± 0.04; in series [5], 5.01 ± 0.04. Moreover, the EC50 in series [6] is 0.479 µM.

As for `FC(F)(F)c1cccc(C2CCN(CCCCn3nnc4ccccc43)CC2)c1` [II-110, N-(4-(1H-benzotriazole-1-yl)butyl)-4-(3-trifluoromethylphenyl)piperidine], the “−logEC50” value was determined as 6.36 ± 0.03 in series [1] and 5.12 ± 0.03 in series [5]. It took 0.355 µM to reach a half-maximal effect in series [6] (EC50).

Turning to `Fc1cccc(C2CCN(CCCCn3cnc4ccccc43)CC2)c1` [II-111, N-(4-(1H-benzimidazoyl-1-yl)butyl)-4-(3-fluorophenyl)piperidine], the “−logEC50” value worked out at 4.89 ± 0.02 in series [1] and 3.44 ± 0.02 in series [5]. In series [6], this molecule gave an EC50 of 21.4 µM.

Take `COc1ccccc1C1CCN(CCCCn2cnc3ccccc32)CC1` [II-112, N-(4-(1H-benzimidazoyl-1-yl)butyl)-4-(2-methoxylphenyl)piperidine]: the “−logEC50” value was 4.76 ± 0.03 in series [1] and 3.38 ± 0.03 in series [5]. In series [6], this molecule showed an EC50 of 28.2 µM.

Turning to `Fc1ccc2nnn(CCCCN3CCC(c4cccc(C(F)(F)F)c4)CC3)c2c1` [II-113, N-(4-(6-fluoro-1H-benzotriazole-1-yl)butyl)-4-(3-trifluoromethylphenyl)piperidine], the “−logEC50” value in series [1] amounted to 5.31 ± 0.04; in series [5], 4.03 ± 0.04. In series [6], this molecule showed an EC50 of 6.17 µM.

On to `COc1ccc2nnn(CCCCN3CCC(c4cccc(C(F)(F)F)c4)CC3)c2c1` [II-114, N-(4-(6-methoxyl-1H-benzotriazole-1-yl)butyl)-4-(3-trifluoromethylphenyl)piperidine], for which the “−logEC50” value in series [1] amounted to 4.86 ± 0.03; in series [5], 3.56 ± 0.03. Besides, the EC50 in series [6] is 17 µM.

Turning to `N#Cc1ccc2nnn(CCCCN3CCC(c4cccc(C(F)(F)F)c4)CC3)c2c1` [II-115, N-(4-(6-cyano-1H-benzotriazole-1-yl)butyl)-4-(3-trifluoromethylphenyl)piperidine], the “−logEC50” value in series [1] turned out to be 4.79 ± 0.02; in series [5] it was 3.23 ± 0.02. A half-maximal effect in series [6] (EC50) was put at 29.5 µM.

Take `FC(F)(F)c1cccc(C2CCN(CCCOn3nnc4ccccc43)CC2)c1` [II-116, N-(4-(1H-benzotriazole-1-yl)propoxyl)-4-(3-trifluoromethylphenyl)piperidine]: the “−logEC50” value in series [1] worked out at 5.56 ± 0.05; in series [5], 4.22 ± 0.05. In series [6], this molecule showed an EC50 of 4.37 µM.

`FC(F)(F)c1cccc(C2CCN(CCCOn3cnc4ccccc43)CC2)c1` [II-117, N-(4-(1H-benzimidazole-1-yl)propoxyl)-4-(3-trifluoromethylphenyl)piperidine]: the figures for the “−logEC50” value in series [1] and in series [5] were 5.31 ± 0.06 and 4.17 ± 0.06, respectively. Also, in series [6], it took 7.08 µM to reach a half-maximal effect (EC50).

With `c1coc(C2CCN(CCCCn3cnc4ccccc43)CC2)c1` [II-118, N-(4-(1H-benzimidazoyl-1-yl)butyl)-4-(2-furyl)piperidine], the “−logEC50” value in series [1] is 4.43 ± 0.05; in series [5], 3.53 ± 0.03. Moreover, the 50% effective concentration (EC50) in series [6] is 58.9 µM.

`c1ccc2c(c1)ncn2CCCCN1CCC(c2ccncc2)CC1` [II-119, N-(4-(1H-benzimidazoyl-1-yl)butyl)-4-(4-pyridyl)piperidine]: the “−logEC50” value in series [1] is on record as 4.86 ± 0.04; in series [5] it was 3.26 ± 0.04. In series [6], this molecule showed a concentration for a half-maximal effect (EC50) of 21.9 µM.

Turning to `c1cnc(C2CCN(CCCCn3cnc4ccccc43)CC2)nc1` [II-120, N-(4-(1H-benzimidazoyl-1-yl)butyl)-4-(2-pyrimidinyl)piperidine], the EC50 in series [1] is 19.1 µM; in series [6] it was 30.2 µM. The “−logEC50” value in series [5] is 3.32 ± 0.02.

With `c1ccc2c(c1)nnn2CCCCN1CCC(C2CCCCC2)CC1` [II-121, N-(4-(1H-benzotriazole-1-yl)butyl)-4-(4-cyclohexyl)piperidine], the EC50 in series [1] was 40.7 µM; in series [6], 36.3 µM. In series [5], the “−logEC50” value turned out to be 3.14 ± 0.05.

Regarding `c1ccc2c(C3CCN(CCCCn4nnc5ccccc54)CC3)cccc2c1` [II-122, N-(4-(1H-benzotriazole-1-yl)butyl)-4-(1-naphthyl)piperidine], the EC50 in series [1] is 60.3 µM; in series [6], 45.7 µM. For the same molecule, the “−logEC50” value in series [5] turned out to be 3.04 ± 0.03.

`c1ccc2nc(C3CCN(CCCCn4nnc5ccccc54)CC3)cnc2c1` [II-123, N-(4-(1H-benzotriazole-1-yl)butyl)-4-(2-quinoxalinyl)piperidine]: the EC50 in series [1] was 14.8 µM; in series [6] it was 29.5 µM. Further, the “−logEC50” value in series [5] was determined as 3.13 ± 0.04.

`COc1ccc2nnn(CCCN3CCC(c4noc5cc(F)ccc45)CC3)c2c1` [II-140, N-(3-(6-methoxyl-1H-benzotriazole-1-yl)propyl)-4-(3-(6-fluorobenzisoxazolyl))piperidine] gave an EC50 in series [1] of 5.89 µM. Also, the “−logEC50” value in series [6] is reported as 5.31 ± 0.05; in series [5] it was 5.02 ± 0.05.

For `COc1ccc2nnn(OCCN3CCC(c4noc5ccccc45)CC3)c2c1` [II-147, N-(2-(6-methoxylbenzotriazolyl)ethoxyl)-4-(3-benzisoxazolyl)piperidine], the results for the EC50 in series [1], in series [6] and in series [5] were 93.3 µM, 49 µM and 295 µM, respectively.

Take `c1ccc2c(c1)nnn2OCCN1CCC(c2noc3ccccc23)CC1` [II-148]: the results for the 50% effective concentration (EC50) in series [1], in series [6] and in series [5] were 55 µM, 91.2 µM and 55 µM, respectively.

For the molecule `O=P1(N(CCCl)CCCl)NCCCO1` (stereo not drawn) [cyclophosphane, reference compound], the “micronuclei cells in 1000 polychromatic erythrocytes” value in series [7] stood at 12%.
